Results published in patent US20230255954A1, “INTERLEUKIN 33 (IL-33) INHIBITION FOR TREATMENT OF CANCER, FIBROSIS AND INFLAMMATION” (The General Hospital Corporation, priority 2020, published 2023).

B1: HA-IL-33 cytokine domain (other, mouse, UniProt Q8BVZ5 109-266, looked up)
chain: SIQGTSLLTQSPASLSTYNDQSVSFVLENGCYVINVDDSGKDQEQDQVLLRYYESPCPASQSGDGVDGKKLMVNMSPIKDTDIWLHANDKDYSVELQRGDVSPPEQAFFVLHKKSSDFVSFECKNLPGTYIGVKDNQLALVEEKDESCNNIMFKLSKI
notes: domain: cytokine domain; Overexpressed in Pam212 cells for 24 hours; localized to the cytoplasm; not shown: HA tag from the pcDNA3.1-HA vector

How the values were obtained:
[1] = tested on: Il33 expression induced by Poly (I:C) in Pam212 cells; experiment: Il33 RNA by qPCR in Poly (I:C)-treated Pam212 cells; type: cell-based, mouse
Method: (§1) Pam212 cells were grown at 37° C. in DMEM (Thermo Fisher Scientific, Waltham, Mass., catalog no. 11995065) supplemented with 10% fetal bovine serum (Thermo Fisher Scientific, catalog no. 26140079), 1× penicillin-streptomycin-glutamine (Thermo Fisher Scientific, catalog no. 10378016), 1×MEM non-essential amino acids solution (Thermo Fisher Scientific, catalog no. 11140050), 1×HEPES (Thermo Fisher Scientific, catalog no. 15630080) and 0.1% 2-Mercaptoethanol (Thermo Fisher Scientific, catalog no. 21985023). […]
(§2) Mouse dorsal skin samples were homogenized and lysed in RLT lysis solution (QIAGEN, catalog no. 79216)/0.1% MeOH using Mini-BeadBeater-8 (BioSpec Products, Inc., Bartlesville, Okla.). Total RNA was extracted using an RNeasy micro kit and quantified using NanoDrop ND-1100 (NanoDrop Technologies, Wilmington, Del.). cDNA samples were synthesized from 1 μg of total RNA using Invitrogen SuperScripts III Reverse Transcriptase (Thermo Fisher Scientific, catalog no. 18080085). Expression levels of all cDNA samples were determined with LightCycler 480 system (Roche Molecular Systems Inc., Pleasanton, Calif.) using TaqMan Universal Master Mix II (Thermo Fisher Scientific, catalog no. 44-400-40). […]

[2] = tested on: mouse Il33 gene promoter (IL-33 promoter-luci reporter); experiment: IL-33 promoter luciferase screen of FDA-approved Drug Library; type: cell-based; details: 10 μM, 24 hours; IL-33 promoter-luci vs control-luci stable Pam212 cells; 1056 molecules tested
Method: Pam212 cells were grown at 37° C. in DMEM (Thermo Fisher Scientific, Waltham, Mass., catalog no. 11995065) supplemented with 10% fetal bovine serum (Thermo Fisher Scientific, catalog no. 26140079), 1× penicillin-streptomycin-glutamine (Thermo Fisher Scientific, catalog no. 10378016), 1×MEM non-essential amino acids solution (Thermo Fisher Scientific, catalog no. 11140050), 1×HEPES (Thermo Fisher Scientific, catalog no. 15630080) and 0.1% 2-Mercaptoethanol (Thermo Fisher Scientific, catalog no. 21985023). PyMT cell lines (derived from a primary breast tumor of MMTV-PyMrg mouse on a C57BL/6 background) were grown at 37° C. in RPMI Medium 1640 (Thermo Fisher Scientific, catalog no. 11875093) supplemented with 10% fetal bovine serum, 1× penicillin-streptomycin-glutamine and 0.1% 2-Mercaptoethanol. IL-33 promoter-luci vector (GeneCopoeia, Rockville, Md., catalog no. MPRM3494-PG02) or Control-luci vector (deletion form of IL-33 promoter region from IL-33 promoter-luci vector) or Poly (I:C) (Invivogen, San Diego, Calif., catalog no. tlrl-pic) in Pam212 cells were performed using Lipofectamine 2000 (Thermo Fisher Scientific, catalog no. 11668019) according to the manufacturer's instructions.
After transfection of plasmids in Pam212 cells, cells were incubated with 3 μg/ml of puromycin (Invivogen, San Diego, Calif., catalog no. ant-pr-1) for positive transfected cell selection. After following 2 days, medium was changed new puromycin contained medium for further selection. After following 2 days, cells were moved to new plate with puromycin contained medium. Puromycin selection was repeated for five times more.
1000 stable cells were seed to 384 wells (Corning, Glendale, Ariz., catalog no. 3570) and each of plate was incubated 24 hours. Following day, 10 μM of FDA-approved Drug Library compounds (Selleckchem, Houston, Tex., catalog no. L1300) were added to each well. After 24 hours, 5 μL of luciferase buffer from Pierce Gaussia luciferase glow assay kit (Thermo Fisher Scientific, Waltham, Mass., catalog no. 16160) were added each well and incubated for 5 min. Each plate was read and measured with luminescence by EnVision 2014 plate reader (Perkin Elmer, Waltham, Mass., catalog no. 2014 EnVision).
To make small molecule screening platform, we generated both IL-33 promoter-luci and control-luci over-expressed stable epithelial cell line (Pam212) by multiple puromycin selection strategy (FIG. 10A). To find molecules that can inhibit IL-33 expression, we tested 1056 FDA-approved small molecules against our reporter cell line. […] To find bona fide inhibitors of IL-33, we checked RNA level of Il33 by qPCR in cells treated with inducer of IL-33 expression, Poly (I:C). After cells were treated by Poly (I:C), RNA level of Il33 was increased compared to carrier group. However, Il33 RNA level was decreased by pitavastatin and tropisetron in Poly I:C-treated cells (FIGS. 10C and D). […] Finally, endogenous IL-33 protein level was decreased after treatment with pitavastatin in a dose-dependent manner (FIG. 10F). Therefore, pitavastatin is a small inhibitor molecule of IL-33.

[3] = tested on: endogenous Il33 expression in PyMT breast cancer cell line; experiment: Endogenous Il33 RNA in PyMT breast cancer cell line; type: cell-based, mouse
Method: as §1, §2

[4] = target: T1, RUNX2 transcription factor (mouse, UniProt Q08775 1-607, limits assumed); experiment: immunoprecipitation with anti-IL-33 antibody from transfected Pam212 lysate, immunoblot for RUNX2
T1 construct: Detected by immunoblot (anti-RUNX2 clone D1L7F) after immunoprecipitation of IL-33; The species follows from the mouse cell lines; also called endogenous RUNX2
Method: (G) Immunoblot for interaction between nuclear IL-33 and RUNX2. After Pam212 cells were transfected with IL-33 full length or cytokine domain for 24 hours, cell lysates were subjected to immunoprecipitation with anti-IL-33 antibody followed by immunoblot analysis.
Cell lysates were prepared in buffer-A consisting of 50 mM Tris-HCL (pH 8.0), 150 mM NaCl, 0.5% NP-40 and 1× protease inhibitor cocktail. After confirming the concentration of total proteins, the cell lysates were incubated with IL-33 (Nessy-1) overnight at 4° C. and incubated with 30 μL of 50% slurry of protein A-conjugated Sepharose (Cell Signaling Technology, Danvers, Mass., catalog no. 9863S) for the next 2 hours. The samples were precipitated, washed three times with buffer-A containing 300 mM NaCl. Samples were added to 25 μL SDS sampling buffer (Boston Bioproducts, catalog no. BP-111R) and boiled at 95° C. for 10 min. Samples were subjected to SDS-polyacrylamide gel electrophoresis followed by immunoblot analysis.

T1 sequence (Q08775 whole entry): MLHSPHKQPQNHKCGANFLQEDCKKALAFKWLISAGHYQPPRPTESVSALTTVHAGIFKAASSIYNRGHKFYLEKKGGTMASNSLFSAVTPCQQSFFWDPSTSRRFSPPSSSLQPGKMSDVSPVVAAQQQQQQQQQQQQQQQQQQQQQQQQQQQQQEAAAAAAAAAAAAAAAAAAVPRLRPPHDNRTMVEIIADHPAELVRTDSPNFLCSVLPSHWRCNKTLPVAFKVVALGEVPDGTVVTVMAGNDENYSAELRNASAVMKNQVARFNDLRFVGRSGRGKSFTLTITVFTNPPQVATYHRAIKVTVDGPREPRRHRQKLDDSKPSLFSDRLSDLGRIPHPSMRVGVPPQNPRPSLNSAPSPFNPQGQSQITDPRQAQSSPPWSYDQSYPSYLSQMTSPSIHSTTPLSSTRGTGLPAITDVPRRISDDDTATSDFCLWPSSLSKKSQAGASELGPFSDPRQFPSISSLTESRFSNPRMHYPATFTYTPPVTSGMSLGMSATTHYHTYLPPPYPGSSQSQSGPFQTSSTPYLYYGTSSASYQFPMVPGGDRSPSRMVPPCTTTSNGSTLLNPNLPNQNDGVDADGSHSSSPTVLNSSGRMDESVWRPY

Molecule | Il33 RNA level [1] | IL-33/Control luminescence ratio (inhibitory effect against IL-33 reporter) [2] | endogenous Il33 RNA level [3] | binding result [4]
CN1[C@@H]2CC[C@H]1C[C@@H](OC(=O)c1c[nH]c3ccccc13)C2 [tropisetron] | decreased | small molecule candidates | inhibitory effect | 
CC1(C)[C@@H](O[C@H]2O[C@H](C(=O)O)[C@@H](O)[C@H](O)[C@H]2O[C@@H]2O[C@H](C(=O)O)[C@@H](O)[C@H](O)[C@H]2O)CC[C@]2(C)[C@H]3C(=O)C=C4[C@@H]5C[C@@](C)(C(=O)O)CC[C@]5(C)CC[C@@]4(C)[C@]3(C)CC[C@@H]12 [ammonium glycyrrhizinate] |  | small molecule candidates |  | 
CCCCCCCCCCCCCCCC[N+](C)(C)C [cetrimonium bromide] |  | small molecule candidates |  | 
CCCSc1nc(N[C@@H]2C[C@H]2c2ccc(F)c(F)c2)c2nnn([C@@H]3C[C@H](OCCO)[C@@H](O)[C@H]3O)c2n1 [ticagrelor] |  | small molecule candidates |  | 
B1 |  |  |  | no binding
